Patent publication US6992079B2, “Substituted 11-phenyl-dibenzazepine compounds useful for the treatment or prevention of diseases characterized by abnormal cell proliferation” (President Fellows of Harvard College, priority 1997, dated 2006)
Where two headings read alike, the source gives them in different places.

Legend:
[1] = tested on: NIH 3T3 mouse fibroblast cells; experiment: Mitogenic assay (mitogen-induced cell proliferation); assay type: cell-based; details: NIH3T3, 10 μM compound
HTB174 = experiment: SRB antiproliferative assay; assay type: cell-based; details: Homo sapiens, HTB174 (Lung), 5% FCS/5 day incubation
Excerpt: (§1) The cells were passaged using Trypsin (Gibco).

A549 = experiment: SRB antiproliferative assay; assay type: cell-based; details: Homo sapiens
Excerpt: as §1

HT29 = experiment: SRB antiproliferative assay; assay type: cell-based; details: Homo sapiens
Excerpt: as §1

HEPG2 = experiment: SRB antiproliferative assay; assay type: cell-based; details: Homo sapiens, HepG2, HEPG2 (Hepatocel), 5% FCS/5 day incubation
Excerpt: as §1

HeLa = experiment: SRB antiproliferative assay; assay type: cell-based; details: Homo sapiens, HeLa (Cervical), 5% FCS/5 day incubation
Excerpt: as §1

MCF7 = experiment: SRB antiproliferative assay; assay type: cell-based; details: Homo sapiens
Excerpt: as §1

MDA-MB-23 = experiment: SRB antiproliferative assay; assay type: cell-based; details: Homo sapiens
Excerpt: as §1

U118MG = experiment: SRB antiproliferative assay; assay type: cell-based; details: Homo sapiens, U-118-MG, U118MG (CNS), 5% FCS/5 day incubation
Excerpt: as §1

MMRU = experiment: SRB antiproliferative assay; assay type: cell-based; details: Homo sapiens
Excerpt: as §1

[2] = Preliminary toxicology, subcutaneous injection for 14 days; assay type: in vivo, CD-1 female mice; details: mouse, in vivo, sc, 80 mg/kg/day
Method: The toxicological effects of CLT, and compounds 28, 30 and 31 were tested in CD-1 female mice. A dose of 80 mg/kg/day was given to each mouse via subcutaneous injection for a period of 14 days. Preliminary toxicological data was determined by measuring body weight, gross pathology of organs blood chemistry and histology. The vehicle used was DMF 12%+2% Tween 20 88%.

[3] = tested on: human melanoma MM-RU cells; experiment: Lung metastases in MM-RU tumor-bearing mice; assay type: in vivo, nude mice
[4] = tested on: squamous cell carcinoma (KLN-205) cells; experiment: Tumor growth in murine squamous cell carcinoma model; assay type: in vivo, mouse
[5] = tested on: Ca^2+ from intracellular pools / capacitative Ca^2+ influx; experiment: Intracellular Ca2+ release and capacitative Ca2+ influx; assay type: cell-based; details: in vitro
[6] = target: T1, Gardos channel of erythrocytes (Homo sapiens, UniProt O15554); experiment: Gardos channel assay; assay type: cell-based
T1 construct: endogenous in cells; host or cells: erythrocytes

ACHN = experiment: SRB antiproliferative assay; assay type: cell-based; details: Homo sapiens, ACHN (Renal), 5% FCS/5 day incubation
Excerpt: as §1

CaSki = experiment: SRB antiproliferative assay; assay type: cell-based; details: Homo sapiens, Ca-Ski, CaSki (Cervical), 5% FCS/5 day incubation
Excerpt: as §1

DU-145 = experiment: SRB antiproliferative assay; assay type: cell-based; details: Homo sapiens, DU-145 (Prostate), 5% FCS/5 day incubation
Excerpt: as §1

GM = experiment: SRB antiproliferative assay; assay type: cell-based; details: GM (Normal human), 5% FCS/5 day incubation
Excerpt: as §1

HCT-15 = experiment: SRB antiproliferative assay; assay type: cell-based; details: Homo sapiens, HCT-15 (Colon), 5% FCS/5 day incubation
Excerpt: as §1

HUVEC = experiment: SRB antiproliferative assay; assay type: cell-based; details: HUVEC (Normal human), 5% FCS/5 day incubation
Excerpt: as §1

L929 = experiment: SRB antiproliferative assay; assay type: cell-based; details: L929 (Normal mouse), 5% FCS/5 day incubation
Excerpt: as §1

SK-MEL-28 = experiment: SRB antiproliferative assay; assay type: cell-based; details: Homo sapiens, SK-MEL-28 (Melanoma), 5% FCS/5 day incubation
Excerpt: as §1

[7] = A549, A549 (Lung), 5% FCS/5 day incubation
[8] = HT-29, HT29 (Colon), 5% FCS/5 day incubation
[9] = MCF7, MCF7 (Breast), 5% FCS/5 day incubation
[10] = MDA-MB-23 (Breast), SRB, 5% FCS/5 day incubation, read-out: IC50
[11] = MMRU (Melanoma), 5% FCS/5 day incubation
[12] = mouse, in vivo, po, 120 mg/kg/day

T1 sequence (O15554 whole entry): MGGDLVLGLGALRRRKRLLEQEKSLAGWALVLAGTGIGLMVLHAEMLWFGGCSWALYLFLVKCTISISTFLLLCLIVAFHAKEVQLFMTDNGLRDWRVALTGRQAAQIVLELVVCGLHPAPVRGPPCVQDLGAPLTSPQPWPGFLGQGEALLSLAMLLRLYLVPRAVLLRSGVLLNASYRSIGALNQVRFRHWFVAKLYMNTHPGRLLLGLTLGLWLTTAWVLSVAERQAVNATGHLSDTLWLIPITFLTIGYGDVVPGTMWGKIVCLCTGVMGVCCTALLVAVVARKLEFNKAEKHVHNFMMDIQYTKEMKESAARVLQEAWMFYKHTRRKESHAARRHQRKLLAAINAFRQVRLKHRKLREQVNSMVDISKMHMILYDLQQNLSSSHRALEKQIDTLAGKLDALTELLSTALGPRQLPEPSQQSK

Clc1ccccc1C1c2ccccc2CNc2ccccc21 (stereo not drawn) [Compound 3]
inhibition at 10 µM ([1]; Mus musculus): 99%

COc1cccc2c1C(c1ccccc1Cl)c1cc(Cl)ccc1N(C(=O)c1ccc(Cl)cc1)C2 (stereo not drawn) [Compound 24]
inhibition at 10 µM ([1]; Mus musculus): 89%

CNc1ccc(C(=O)N2Cc3ccccc3C(c3ccccc3Cl)c3ccccc32)cc1 (stereo not drawn) [Compound 33]
inhibition at 10 µM ([1]; Mus musculus): 99% | IC50 (HTB174): 1400 nM

COC(=O)N1Cc2ccccc2C(c2ccccc2)c2ccccc21 (stereo not drawn) [Compound 6]
inhibition at 10 µM ([1]; Mus musculus): 87% | IC50 (A549; A549, A549, 5% FCS/2 days): > 10000 nM | IC50 (HT29; HT-29, HT29, 5% FCS/2 days): > 10000 nM

Clc1ccccc1C1c2ccccc2CN(Cc2ccccc2)c2ccccc21 (stereo not drawn) [Compound 8]
inhibition at 10 µM ([1]; Mus musculus): 84%

COc1ccc2c(c1)CNc1ccc(Cl)cc1C2c1ccccc1Cl (stereo not drawn) [Compound 19]
inhibition at 10 µM ([1]; Mus musculus): 99%

CN1Cc2ccccc2C(c2ccccc2)c2ccccc21 (stereo not drawn) [Compound 2]
inhibition at 10 µM ([1]; Mus musculus): 99%

COc1ccc(C(=O)N2Cc3ccccc3C(c3ccccc3)c3ccccc32)cc1 (stereo not drawn) [Compound 21]
inhibition at 10 µM ([1]; Mus musculus): 93% | IC50 (HTB174): 1900 nM

COc1ccc(C(=O)N2Cc3ccccc3C(c3ccccc3Cl)c3ccccc32)cc1 (stereo not drawn) [Compound 27]
inhibition at 10 µM ([1]; Mus musculus): 99% | IC50 (A549; [7]): 1100 nM | IC50 (HEPG2): 400 nM | IC50 (HT29; [8]): 400 nM | IC50 (HTB174): 300 nM | IC50 (HeLa): 200 nM | IC50 (MCF7; [9]): 500 nM | IC50 (MDA-MB-23; [10]): > 1000 nM | IC50 (U118MG): 400 nM

c1ccc(CN2Cc3ccccc3C(c3ccccc3)c3ccccc32)cc1 (stereo not drawn) [Compound 5]
inhibition at 10 µM ([1]; Mus musculus): 91%

CCOC(=O)C(=O)N1Cc2ccccc2C(c2ccccc2)c2ccccc21 (stereo not drawn) [Compound 10]
inhibition at 10 µM ([1]; Mus musculus): 53%

O=C(Nc1ccc([N+](=O)[O-])cc1)N1Cc2ccccc2C(c2ccccc2Cl)c2ccccc21 (stereo not drawn) [Compound 35]
inhibition at 10 µM ([1]; Mus musculus): 0% | IC50 (A549; [7]): > 5000 nM | IC50 (HEPG2): 4500 nM | IC50 (HT29; [8]): 4800 nM | IC50 (HTB174): 4000 nM | IC50 (MCF7; [9]): 2400 nM | IC50 (MMRU; [11]): 3100 nM

COc1ccc2c(c1)CN(C(=O)c1ccc(Cl)cc1)c1ccc(Cl)cc1C2c1ccccc1Cl (stereo not drawn) [Compound 23]
inhibition at 10 µM ([1]; Mus musculus): 55%

Clc1ccccc1C(c1ccccc1)(c1ccccc1)n1ccnc1 [Clotrimazole, reference compound]
inhibition at 10 µM [1]: 93% | overall body weight vs age matched control animals [2]: no significant gains or losses | Lung Metastases ([3]; MM-RU tumor-bearing mice, 120 mg/kg/d × 21, p.o.): 64 ± 20 | Body Wt. Change [3, 12]: 86% | Liver Wt. [3, 12]: 1.19 ± 0.10 gram | cyclin D1 and PCNA expression in vivo ([4]; KLN induced tumors): abrogated cyclin D1 and PCNA expression | tumor growth ([4]; KLN-205, subcutaneous injection or oral administration of 80 mg/kg/day for 30 days): significantly inhibited tumor growth | Ca^2+ release from intracellular pools [5]: releases Ca^2+ from intracellular pools | capacitative Ca^2+ influx into the cell [5]: inhibits capacitative Ca^2+ influx

CN1Cc2ccccc2C(c2ccccc2)c2cc(Br)ccc21 (stereo not drawn) [Compound 7]
inhibition at 10 µM ([1]; Mus musculus): 99%

O=C(c1ccccc1)N1Cc2ccccc2C(c2ccccc2)c2ccccc21 (stereo not drawn) [Compound 16]
inhibition at 10 µM ([1]; Mus musculus): 99% | IC50 (A549; [7]): > 5000 nM | IC50 (HEPG2): 3400 nM | IC50 (HT29; [8]): 2600 nM | IC50 (MCF7; [9]): 4200 nM | IC50 (MMRU; [11]): 2700 nM

O=C(Oc1ccccc1)N1Cc2ccccc2C(c2ccccc2)c2ccccc21 (stereo not drawn) [Compound 14, N-phenoxycarbonyl-11-phenyl-5,6-dihydro-11H-dibenz[b,e]azepine]
inhibition at 10 µM ([1]; Mus musculus): 98% | melting point: 155 to 165 °C

O=C(c1ccc(Cl)cc1)N1Cc2ccccc2C(c2ccccc2)c2ccccc21 (stereo not drawn) [Compound 13]
inhibition at 10 µM ([1]; Mus musculus): 97%

Nc1ccc(C(=O)N2Cc3ccccc3C(c3ccccc3Cl)c3ccccc32)cc1 (stereo not drawn) [Compound 34]
inhibition at 10 µM ([1]; Mus musculus): 99% | IC50 (HEPG2): 1500 nM | IC50 (HTB174): 900 nM | IC50 (MMRU; [11]): 1200 nM

CN1Cc2ccccc2C(c2ccccc2Cl)c2ccccc21 (stereo not drawn) [Compound 29]
IC50 [6]: 414 to 433 nM

O=C(Nc1ccccc1)N1Cc2ccccc2C(c2ccccc2Cl)c2ccccc21 (stereo not drawn) [Compound 32]
inhibition at 10 µM ([1]; Mus musculus): 99%

O=C(Oc1ccccc1)N1Cc2ccccc2C(c2ccccc2Cl)c2ccccc21 (stereo not drawn) [Compound 26, N-phenoxycarbonyl-11-(2′-chlorophenyl)-5,6-dihydro-11H-dibenz[b,e]azepine]
inhibition at 10 µM ([1]; Mus musculus): 99% | melting point: 95 to 99 °C

Clc1ccc2c(c1)C(c1ccccc1)c1cc3ccccc3cc1CN2 (stereo not drawn) [Compound 15]
inhibition at 10 µM ([1]; Mus musculus): 40%

c1ccc(C2c3ccccc3CNc3ccccc32)cc1 (stereo not drawn) [Compound 1]
inhibition at 10 µM ([1]; Mus musculus): 56%

COc1cccc(C(=O)N2Cc3ccccc3C(c3ccccc3)c3ccccc32)c1 (stereo not drawn) [Compound 17]
inhibition at 10 µM ([1]; Mus musculus): 99%

O=C(c1ccc2ccccc2c1)N1Cc2ccccc2C(c2ccccc2)c2ccccc21 (stereo not drawn) [Compound 25]
inhibition at 10 µM ([1]; Mus musculus): 75%

COc1ccc2c(c1)CNc1ccccc1C2(c1ccccc1)c1ccc(F)cc1 (stereo not drawn) [Compound 12]
inhibition at 10 µM ([1]; Mus musculus): 13%

COc1cc([C@@H]2c3cc4c(cc3[C@@H](O[C@@H]3O[C@@H]5CO[C@@H](C)O[C@H]5[C@H](O)[C@H]3O)[C@H]3COC(=O)[C@H]23)OCO4)cc(OC)c1O [VP-16, Etoposide, reference compound]
IC50 (A549; [7]): < 1250 nM | IC50 (A549; A549, A549, 2% FCS/3 days): 2300 nM | IC50 (ACHN): < 1250 nM | IC50 (CaSki): 1800 nM | IC50 (DU-145): < 1250 nM | IC50 (GM): 1400 nM | IC50 (HCT-15): 1300 nM | IC50 (HEPG2): < 1250 nM | IC50 (HT29; [8]): < 1250 nM | IC50 (HT29; HT-29, HT29, 2% FCS/3 days): 20000 nM | IC50 (HTB174): < 1250 nM | IC50 (HUVEC): < 1250 nM | IC50 (HeLa): < 1250 nM | IC50 (L929): < 1250 nM | IC50 (MCF7; [9]): < 1250 nM | IC50 (MCF7; MCF7, MCF7, 2% FCS/3 days): < 2500 nM | IC50 (MDA-MB-23; MDA-MB-23): < 1250 nM | IC50 (MMRU; [11]): < 1250 nM | IC50 (MMRU; MMRU, 2% FCS/3 days): < 2500 nM | IC50 (SK-MEL-28): < 1250 nM | IC50 (U118MG): 2200 nM

O=C(O)C(=O)N1Cc2ccccc2C(c2ccccc2)c2ccccc21 (stereo not drawn) [Compound 11]
inhibition at 10 µM ([1]; Mus musculus): 32%

CN1Cc2ccccc2C(c2ccccc2Cl)c2ccccc21 (stereo not drawn) [Compound 4]
inhibition at 10 µM ([1]; Mus musculus): 89% | IC50 (A549; A549, A549, 2% FCS/3 days): 11400 nM | IC50 (HT29; HT-29, HT29, 2% FCS/3 days): 9700 nM | IC50 (MCF7; MCF7, MCF7, 2% FCS/3 days): 1700 nM | IC50 (MMRU; MMRU, 2% FCS/3 days): 4600 nM

O=C(c1ccc([N+](=O)[O-])cc1)N1Cc2ccccc2C(c2ccccc2)c2ccccc21 (stereo not drawn) [Compound 20]
inhibition at 10 µM ([1]; Mus musculus): 95% | IC50 (HEPG2): 900 nM | IC50 (HT29; [8]): 700 nM | IC50 (HTB174): 700 nM | IC50 (HeLa): 600 nM | IC50 (MDA-MB-23; [10]): > 1000 nM | IC50 (U118MG): 900 nM

Cc1ccc(C(=O)N2Cc3ccccc3C(c3ccccc3)c3ccccc32)cc1 (stereo not drawn) [Compound 22]
inhibition at 10 µM ([1]; Mus musculus): 99% | IC50 (HTB174): 1400 nM

COC(=O)N1Cc2ccccc2C(c2ccccc2Cl)c2ccccc21 (stereo not drawn) [Compound 9, N-methoxycarbonyl-11-(2′-chlorophenyl)-5,6-dihydro-11H-dibenz[b,e]azepine]
inhibition at 10 µM ([1]; Mus musculus): 99% | melting point: 159 to 161 °C

COc1cccc2c1C(c1ccccc1Cl)c1cc(Cl)ccc1NC2 (stereo not drawn) [Compound 18]
inhibition at 10 µM ([1]; Mus musculus): 99%
